# Experimental data: PubChem BioAssay (NCI)
#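 Five concentrations, 48 hours, 96-well plates. Definition used: TGI = concentration required for complete inhibition of growth.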
# What was measured:
# Test in all cases: NCI tumour cell line growth inhibition, 48 h
# SK-MEL-5 melanoma = test system: SK-MEL-5 melanoma
# OVCAR-3 ovarian = test system: OVCAR-3 ovarian
# KM20L2 colon = test system: KM20L2 colon
# NCI-H226 lung = test system: NCI-H226 lung
# MALME-3M melanoma = test system: MALME-3M melanoma
# KM12 colon = test system: KM12 colon
# NCI-H460 lung = test system: NCI-H460 lung
# HL-60(TB) leukemia = test system: HL-60(TB) leukemia
# DLD-1 colon = test system: DLD-1 colon
# LXFL 529 NSCLC = test system: LXFL 529 NSCLC
# SK-MEL-28 melanoma = test system: SK-MEL-28 melanoma
# DMS 273 small cell lung = test system: DMS 273 small cell lung
# TK-10 renal = test system: TK-10 renal
# UACC-62 melanoma = test system: UACC-62 melanoma
# SF-268 CNS = test system: SF-268 CNS
# SN12C renal = test system: SN12C renal
# HCT-116 colon = test system: HCT-116 colon
# LOX IMVI melanoma = test system: LOX IMVI melanoma
# SK-OV-3 ovarian = test system: SK-OV-3 ovarian
# RXF 393 renal = test system: RXF 393 renal
# A549 NSCLC = test system: A549 NSCLC
# CAKI-1 renal = test system: CAKI-1 renal
# HOP-92 NSCLC = test system: HOP-92 NSCLC
# K-562 leukemia = test system: K-562 leukemia
# SF-295 CNS = test system: SF-295 CNS
# 786-0 renal = test system: 786-0 renal
# SF-539 CNS = test system: SF-539 CNS
# M19-MEL melanoma = test system: M19-MEL melanoma
# HT29 colon = test system: HT29 colon
# ACHN renal = test system: ACHN renal
# SK-MEL-2 melanoma = test system: SK-MEL-2 melanoma
# NCI-H23 lung = test system: NCI-H23 lung
# SR leukemia = test system: SR leukemia
# NCI-H522 lung = test system: NCI-H522 lung
# HOP-62 NSCLC = test system: HOP-62 NSCLC
# U251 CNS = test system: U251 CNS
# UACC-257 melanoma = test system: UACC-257 melanoma
# OVCAR-5 ovarian = test system: OVCAR-5 ovarian
# HCT-15 colon = test system: HCT-15 colon
# EKVX NSCLC = test system: EKVX NSCLC
# CCRF-CEM leukemia = test system: CCRF-CEM leukemia
# MOLT-4 leukemia = test system: MOLT-4 leukemia
# IGROV1 ovarian = test system: IGROV1 ovarian
# HCC-2998 colon = test system: HCC-2998 colon
# SNB-19 CNS = test system: SNB-19 CNS
# COLO 205 colon = test system: COLO 205 colon
# OVCAR-8 ovarian = test system: OVCAR-8 ovarian
# HOP-18 NSCLC = test system: HOP-18 NSCLC
# SW-620 colon = test system: SW-620 colon
# RXF-631 renal = test system: RXF-631 renal
# OVCAR-4 ovarian = test system: OVCAR-4 ovarian
# UO-31 renal = test system: UO-31 renal
# RPMI-8226 leukemia = test system: RPMI-8226 leukemia
# DMS 114 small cell lung = test system: DMS 114 small cell lung
# A498 renal = test system: A498 renal
# SNB-75 CNS = test system: SNB-75 CNS
# M14 melanoma = test system: M14 melanoma
# SNB-78 CNS = test system: SNB-78 CNS
# XF 498 CNS = test system: XF 498 CNS
structure (smiles),measurement,setting,value
COC(=O)C1(C(=O)OC)CC(=O)c2cc3c(cc2-c2c(cc(OC)c(OC)c2OC)C1)OCO3,TGI,SK-MEL-5 melanoma,> 211 µM
same,TGI,OVCAR-3 ovarian,> 211 µM
same,TGI,KM20L2 colon,> 211 µM
same,TGI,NCI-H226 lung,> 211 µM
same,TGI,MALME-3M melanoma,> 211 µM
same,TGI,KM12 colon,> 211 µM
same,TGI,NCI-H460 lung,> 211 µM
same,TGI,HL-60(TB) leukemia,> 211 µM
same,TGI,DLD-1 colon,> 211 µM
same,TGI,LXFL 529 NSCLC,> 211 µM
same,TGI,SK-MEL-28 melanoma,> 211 µM
same,TGI,DMS 273 small cell lung,> 211 µM
same,TGI,TK-10 renal,> 211 µM
same,TGI,UACC-62 melanoma,> 211 µM
same,TGI,SF-268 CNS,> 211 µM
same,TGI,SN12C renal,> 211 µM
same,TGI,HCT-116 colon,> 211 µM
same,TGI,LOX IMVI melanoma,> 211 µM
same,TGI,SK-OV-3 ovarian,> 211 µM
same,TGI,RXF 393 renal,> 211 µM
same,TGI,A549 NSCLC,> 211 µM
same,TGI,CAKI-1 renal,> 211 µM
same,TGI,HOP-92 NSCLC,167 µM
same,TGI,K-562 leukemia,> 211 µM
same,TGI,SF-295 CNS,> 211 µM
same,TGI,786-0 renal,> 211 µM
same,TGI,SF-539 CNS,> 211 µM
same,TGI,M19-MEL melanoma,> 211 µM
same,TGI,HT29 colon,> 211 µM
same,TGI,ACHN renal,> 211 µM
same,TGI,SK-MEL-2 melanoma,> 211 µM
same,TGI,NCI-H23 lung,> 211 µM
same,TGI,SR leukemia,> 211 µM
same,TGI,NCI-H522 lung,> 211 µM
same,TGI,HOP-62 NSCLC,> 211 µM
same,TGI,U251 CNS,> 211 µM
same,TGI,UACC-257 melanoma,> 211 µM
same,TGI,OVCAR-5 ovarian,> 211 µM
same,TGI,HCT-15 colon,> 211 µM
same,TGI,EKVX NSCLC,> 211 µM
same,TGI,CCRF-CEM leukemia,> 211 µM
same,TGI,MOLT-4 leukemia,> 211 µM
same,TGI,IGROV1 ovarian,> 211 µM
same,TGI,HCC-2998 colon,> 211 µM
same,TGI,SNB-19 CNS,> 211 µM
same,TGI,COLO 205 colon,> 211 µM
same,TGI,OVCAR-8 ovarian,> 211 µM
same,TGI,HOP-18 NSCLC,> 211 µM
same,TGI,SW-620 colon,> 211 µM
same,TGI,RXF-631 renal,> 211 µM
COc1ccc(CN2CCC/C=C/CC(Cl)(Cl)C2=O)cc1,TGI,SK-MEL-5 melanoma,35 µM
same,TGI,OVCAR-4 ovarian,98.8 µM
same,TGI,OVCAR-3 ovarian,> 100 µM
same,TGI,KM20L2 colon,> 100 µM
same,TGI,MALME-3M melanoma,87.7 µM
same,TGI,KM12 colon,> 100 µM
same,TGI,NCI-H460 lung,> 100 µM
same,TGI,HL-60(TB) leukemia,69.2 µM
same,TGI,DLD-1 colon,> 100 µM
same,TGI,LXFL 529 NSCLC,> 100 µM
same,TGI,SK-MEL-28 melanoma,> 100 µM
same,TGI,DMS 273 small cell lung,> 100 µM
same,TGI,TK-10 renal,> 100 µM
same,TGI,UACC-62 melanoma,> 100 µM
same,TGI,SF-268 CNS,> 100 µM
same,TGI,UO-31 renal,57.4 µM
same,TGI,SN12C renal,> 100 µM
same,TGI,HCT-116 colon,> 100 µM
same,TGI,RPMI-8226 leukemia,69.4 µM
same,TGI,LOX IMVI melanoma,> 100 µM
same,TGI,SK-OV-3 ovarian,> 100 µM
same,TGI,RXF 393 renal,78.7 µM
same,TGI,A549 NSCLC,> 100 µM
same,TGI,CAKI-1 renal,> 100 µM
same,TGI,HOP-92 NSCLC,62.5 µM
same,TGI,K-562 leukemia,> 100 µM
same,TGI,SF-295 CNS,68.6 µM
same,TGI,786-0 renal,> 100 µM
same,TGI,SF-539 CNS,> 100 µM
same,TGI,M19-MEL melanoma,95.2 µM
same,TGI,HT29 colon,> 100 µM
same,TGI,ACHN renal,78.8 µM
same,TGI,SK-MEL-2 melanoma,44.8 µM
same,TGI,DMS 114 small cell lung,71.3 µM
same,TGI,A498 renal,73.7 µM
same,TGI,NCI-H23 lung,99.5 µM
same,TGI,SR leukemia,68.8 µM
same,TGI,NCI-H522 lung,59.4 µM
same,TGI,HOP-62 NSCLC,> 100 µM
same,TGI,U251 CNS,> 100 µM
same,TGI,OVCAR-5 ovarian,> 100 µM
same,TGI,HCT-15 colon,> 100 µM
same,TGI,CCRF-CEM leukemia,> 100 µM
same,TGI,SNB-75 CNS,64.8 µM
same,TGI,MOLT-4 leukemia,68 µM
same,TGI,IGROV1 ovarian,> 100 µM
same,TGI,HCC-2998 colon,> 100 µM
same,TGI,M14 melanoma,57 µM
same,TGI,SNB-19 CNS,95.4 µM
same,TGI,COLO 205 colon,41.2 µM
same,TGI,OVCAR-8 ovarian,> 100 µM
same,TGI,HOP-18 NSCLC,> 100 µM
same,TGI,SW-620 colon,> 100 µM
O=c1c2cc(Br)ccc2nc(CCl)n1-c1ccc(O)c([N+](=O)[O-])c1,TGI,SK-MEL-5 melanoma,29.8 µM
same,TGI,OVCAR-4 ovarian,33.4 µM
same,TGI,OVCAR-3 ovarian,33 µM
same,TGI,KM20L2 colon,> 100 µM
same,TGI,NCI-H226 lung,29.3 µM
same,TGI,MALME-3M melanoma,33.4 µM
same,TGI,KM12 colon,39.1 µM
same,TGI,NCI-H460 lung,> 100 µM
same,TGI,HL-60(TB) leukemia,49.5 µM
same,TGI,DLD-1 colon,33.4 µM
same,TGI,LXFL 529 NSCLC,39.9 µM
same,TGI,SK-MEL-28 melanoma,32.3 µM
same,TGI,TK-10 renal,32.8 µM
same,TGI,SNB-78 CNS,50.3 µM
same,TGI,UACC-62 melanoma,72.5 µM
same,TGI,SF-268 CNS,44 µM
same,TGI,UO-31 renal,29.9 µM
same,TGI,SN12C renal,36 µM
same,TGI,RPMI-8226 leukemia,47.8 µM
same,TGI,LOX IMVI melanoma,36.2 µM
same,TGI,SK-OV-3 ovarian,93.5 µM
same,TGI,RXF 393 renal,25.7 µM
same,TGI,A549 NSCLC,52.3 µM
same,TGI,CAKI-1 renal,49.3 µM
same,TGI,HOP-92 NSCLC,56.6 µM
same,TGI,K-562 leukemia,48.5 µM
same,TGI,SF-295 CNS,31.5 µM
same,TGI,786-0 renal,31.8 µM
same,TGI,SF-539 CNS,33.5 µM
same,TGI,M19-MEL melanoma,36.2 µM
same,TGI,HT29 colon,68.2 µM
same,TGI,ACHN renal,79.9 µM
same,TGI,SK-MEL-2 melanoma,31.1 µM
same,TGI,A498 renal,90.2 µM
same,TGI,NCI-H23 lung,35.8 µM
same,TGI,NCI-H522 lung,35.7 µM
same,TGI,HOP-62 NSCLC,36.1 µM
same,TGI,U251 CNS,> 100 µM
same,TGI,UACC-257 melanoma,48.2 µM
same,TGI,OVCAR-5 ovarian,> 100 µM
same,TGI,HCT-15 colon,41.2 µM
same,TGI,EKVX NSCLC,31.4 µM
same,TGI,CCRF-CEM leukemia,52.9 µM
same,TGI,XF 498 CNS,29 µM
same,TGI,SNB-75 CNS,44 µM
same,TGI,MOLT-4 leukemia,53.5 µM
same,TGI,IGROV1 ovarian,51.6 µM
same,TGI,HCC-2998 colon,34.1 µM
same,TGI,M14 melanoma,50.2 µM
same,TGI,COLO 205 colon,37.8 µM
same,TGI,OVCAR-8 ovarian,42.2 µM
same,TGI,SW-620 colon,35.2 µM
CSC(=NCCc1c[nH]c2ccccc12)NC#N,TGI,SK-MEL-5 melanoma,> 100 µM
same,TGI,OVCAR-4 ovarian,> 100 µM
same,TGI,OVCAR-3 ovarian,> 100 µM
same,TGI,KM20L2 colon,> 100 µM
same,TGI,NCI-H226 lung,> 100 µM
same,TGI,KM12 colon,> 100 µM
same,TGI,NCI-H460 lung,> 100 µM
same,TGI,HL-60(TB) leukemia,> 100 µM
same,TGI,DLD-1 colon,> 100 µM
same,TGI,LXFL 529 NSCLC,> 100 µM
same,TGI,SK-MEL-28 melanoma,> 100 µM
same,TGI,DMS 273 small cell lung,> 100 µM
same,TGI,TK-10 renal,> 100 µM
same,TGI,SNB-78 CNS,> 100 µM
same,TGI,UACC-62 melanoma,> 100 µM
same,TGI,SF-268 CNS,> 100 µM
same,TGI,UO-31 renal,> 100 µM
same,TGI,SN12C renal,> 100 µM
same,TGI,HCT-116 colon,> 100 µM
same,TGI,RPMI-8226 leukemia,> 100 µM
same,TGI,LOX IMVI melanoma,> 100 µM
same,TGI,SK-OV-3 ovarian,> 100 µM
same,TGI,RXF 393 renal,> 100 µM
same,TGI,A549 NSCLC,> 100 µM
same,TGI,K-562 leukemia,> 100 µM
same,TGI,SF-295 CNS,> 100 µM
same,TGI,786-0 renal,> 100 µM
same,TGI,SF-539 CNS,> 100 µM
same,TGI,M19-MEL melanoma,> 100 µM
same,TGI,HT29 colon,> 100 µM
same,TGI,ACHN renal,> 100 µM
same,TGI,DMS 114 small cell lung,> 100 µM
same,TGI,NCI-H23 lung,> 100 µM
same,TGI,SR leukemia,> 100 µM
same,TGI,HOP-62 NSCLC,> 100 µM
same,TGI,U251 CNS,> 100 µM
same,TGI,UACC-257 melanoma,> 100 µM
same,TGI,OVCAR-5 ovarian,> 100 µM
same,TGI,HCT-15 colon,> 100 µM
same,TGI,EKVX NSCLC,> 100 µM
same,TGI,CCRF-CEM leukemia,> 100 µM
same,TGI,XF 498 CNS,> 100 µM
same,TGI,SNB-75 CNS,> 100 µM
same,TGI,MOLT-4 leukemia,> 100 µM
same,TGI,IGROV1 ovarian,> 100 µM
same,TGI,HCC-2998 colon,> 100 µM
same,TGI,M14 melanoma,> 100 µM
same,TGI,SNB-19 CNS,> 100 µM
same,TGI,COLO 205 colon,> 100 µM
same,TGI,OVCAR-8 ovarian,> 100 µM
same,TGI,SW-620 colon,> 100 µM
